{"source": "PubChem BioAssay (NCI)", "experiment_in_all_cases": "NCI tumour cell line growth inhibition, 48 h", "key": {"[1]": {"test_system": "NCI-H522 lung"}, "[2]": {"test_system": "K-562 leukemia"}, "[3]": {"test_system": "MCF7 breast"}, "[4]": {"test_system": "SK-MEL-2 melanoma"}, "[5]": {"test_system": "NCI-H23 lung"}, "[6]": {"test_system": "HL-60(TB) leukemia"}, "[7]": {"test_system": "LOX IMVI melanoma"}, "[8]": {"test_system": "SNB-19 CNS"}, "[9]": {"test_system": "U251 CNS"}, "[10]": {"test_system": "MALME-3M melanoma"}, "[11]": {"test_system": "KM12 colon"}, "[12]": {"test_system": "M14 melanoma"}, "[13]": {"test_system": "MDA-MB-435"}, "[14]": {"test_system": "BT-549 breast"}, "[15]": {"test_system": "OVCAR-4 ovarian"}, "[16]": {"test_system": "NCI-H226 lung"}, "[17]": {"test_system": "SR leukemia"}, "[18]": {"test_system": "CCRF-CEM leukemia"}, "[19]": {"test_system": "MDA-N"}, "[20]": {"test_system": "DU-145 prostate"}, "[21]": {"test_system": "SN12C renal"}, "[22]": {"test_system": "HOP-92 NSCLC"}, "[23]": {"test_system": "OVCAR-3 ovarian"}, "[24]": {"test_system": "SW-620 colon"}, "[25]": {"test_system": "NCI/ADR-RES ovarian"}, "[26]": {"test_system": "TK-10 renal"}, "[27]": {"test_system": "OVCAR-5 ovarian"}, "[28]": {"test_system": "UO-31 renal"}, "[29]": {"test_system": "PC-3 prostate"}, "[30]": {"test_system": "HCT-15 colon"}, "[31]": {"test_system": "MOLT-4 leukemia"}, "[32]": {"test_system": "SK-OV-3 ovarian"}, "[33]": {"test_system": "UACC-257 melanoma"}, "[34]": {"test_system": "RPMI-8226 leukemia"}, "[35]": {"test_system": "OVCAR-8 ovarian"}, "[36]": {"test_system": "HT29 colon"}, "[37]": {"test_system": "SK-MEL-28 melanoma"}, "[38]": {"test_system": "IGROV1 ovarian"}, "[39]": {"test_system": "HOP-62 NSCLC"}, "[40]": {"test_system": "ACHN renal"}, "[41]": {"test_system": "CAKI-1 renal"}, "[42]": {"test_system": "T-47D breast"}, "[43]": {"test_system": "HS 578T breast"}, "[44]": {"test_system": "HCC-2998 colon"}, "[45]": {"test_system": "SF-268 CNS"}, "[46]": {"test_system": "MDA-MB-231 breast"}, "[47]": {"test_system": "NCI-H460 lung"}, "[48]": {"test_system": "RXF 393 renal"}, "[49]": {"test_system": "UACC-62 melanoma"}, "[50]": {"test_system": "HCT-116 colon"}, "[51]": {"test_system": "A549 NSCLC"}, "[52]": {"test_system": "SF-539 CNS"}, "[53]": {"test_system": "SNB-75 CNS"}, "[54]": {"test_system": "SF-295 CNS"}, "[55]": {"test_system": "786-0 renal"}, "[56]": {"test_system": "COLO 205 colon"}, "[57]": {"test_system": "EKVX NSCLC"}, "[58]": {"test_system": "SK-MEL-5 melanoma"}, "[59]": {"test_system": "A498 renal"}}, "note": "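96-well plates; 48 h exposure; 5 concentrations. Endpoints by linear interpolation between flanking doses. Not reached: highest tested concentration assigned. TGI: concentration producing complete growth inhibition.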"}
{"smiles": "COc1ccccc1C1(C)SCc2nc3ccccc3n21", "note": "(stereo unspecified)", "values": [{"measurement": "TGI", "setting": "[1]", "value": "> 10", "unit": "µM"}, {"measurement": "TGI", "setting": "[2]", "value": "> 10", "unit": "µM"}, {"measurement": "TGI", "setting": "[3]", "value": "> 10", "unit": "µM"}, {"measurement": "TGI", "setting": "[4]", "value": "> 10", "unit": "µM"}, {"measurement": "TGI", "setting": "[5]", "value": "> 10", "unit": "µM"}, {"measurement": "TGI", "setting": "[6]", "value": "> 10", "unit": "µM"}, {"measurement": "TGI", "setting": "[7]", "value": "> 10", "unit": "µM"}, {"measurement": "TGI", "setting": "[8]", "value": "> 10", "unit": "µM"}, {"measurement": "TGI", "setting": "[9]", "value": "> 10", "unit": "µM"}, {"measurement": "TGI", "setting": "[10]", "value": "> 10", "unit": "µM"}, {"measurement": "TGI", "setting": "[11]", "value": "> 10", "unit": "µM"}, {"measurement": "TGI", "setting": "[12]", "value": "> 10", "unit": "µM"}, {"measurement": "TGI", "setting": "[13]", "value": "> 10", "unit": "µM"}, {"measurement": "TGI", "setting": "[14]", "value": "> 10", "unit": "µM"}, {"measurement": "TGI", "setting": "[15]", "value": "> 10", "unit": "µM"}, {"measurement": "TGI", "setting": "[16]", "value": "> 10", "unit": "µM"}, {"measurement": "TGI", "setting": "[17]", "value": "> 10", "unit": "µM"}, {"measurement": "TGI", "setting": "[18]", "value": "> 10", "unit": "µM"}, {"measurement": "TGI", "setting": "[19]", "value": "> 10", "unit": "µM"}, {"measurement": "TGI", "setting": "[20]", "value": "> 10", "unit": "µM"}, {"measurement": "TGI", "setting": "[21]", "value": "> 10", "unit": "µM"}, {"measurement": "TGI", "setting": "[22]", "value": "> 10", "unit": "µM"}, {"measurement": "TGI", "setting": "[23]", "value": "> 10", "unit": "µM"}, {"measurement": "TGI", "setting": "[24]", "value": "> 10", "unit": "µM"}, {"measurement": "TGI", "setting": "[25]", "value": "> 10", "unit": "µM"}, {"measurement": "TGI", "setting": "[26]", "value": "> 10", "unit": "µM"}, {"measurement": "TGI", "setting": "[27]", "value": "> 10", "unit": "µM"}, {"measurement": "TGI", "setting": "[28]", "value": "> 10", "unit": "µM"}, {"measurement": "TGI", "setting": "[29]", "value": "> 10", "unit": "µM"}, {"measurement": "TGI", "setting": "[30]", "value": "> 10", "unit": "µM"}, {"measurement": "TGI", "setting": "[31]", "value": "> 10", "unit": "µM"}]}
{"smiles": "c1csc(-c2ccsc2-c2ccsc2)c1", "values": [{"measurement": "TGI", "setting": "[32]", "value": "> 100", "unit": "µM"}, {"measurement": "TGI", "setting": "[33]", "value": "> 100", "unit": "µM"}, {"measurement": "TGI", "setting": "[34]", "value": "> 100", "unit": "µM"}, {"measurement": "TGI", "setting": "[35]", "value": "> 100", "unit": "µM"}, {"measurement": "TGI", "setting": "[2]", "value": "> 100", "unit": "µM"}, {"measurement": "TGI", "setting": "[36]", "value": "> 100", "unit": "µM"}, {"measurement": "TGI", "setting": "[3]", "value": "> 100", "unit": "µM"}, {"measurement": "TGI", "setting": "[4]", "value": 42.3, "unit": "µM"}, {"measurement": "TGI", "setting": "[5]", "value": "> 100", "unit": "µM"}, {"measurement": "TGI", "setting": "[37]", "value": "> 100", "unit": "µM"}, {"measurement": "TGI", "setting": "[38]", "value": "> 100", "unit": "µM"}, {"measurement": "TGI", "setting": "[6]", "value": "> 100", "unit": "µM"}, {"measurement": "TGI", "setting": "[7]", "value": "> 100", "unit": "µM"}, {"measurement": "TGI", "setting": "[9]", "value": "> 100", "unit": "µM"}, {"measurement": "TGI", "setting": "[39]", "value": "> 100", "unit": "µM"}, {"measurement": "TGI", "setting": "[40]", "value": "> 100", "unit": "µM"}, {"measurement": "TGI", "setting": "[41]", "value": "> 100", "unit": "µM"}, {"measurement": "TGI", "setting": "[42]", "value": "> 100", "unit": "µM"}, {"measurement": "TGI", "setting": "[11]", "value": "> 100", "unit": "µM"}, {"measurement": "TGI", "setting": "[43]", "value": "> 100", "unit": "µM"}, {"measurement": "TGI", "setting": "[12]", "value": "> 100", "unit": "µM"}, {"measurement": "TGI", "setting": "[13]", "value": "> 100", "unit": "µM"}, {"measurement": "TGI", "setting": "[14]", "value": "> 100", "unit": "µM"}, {"measurement": "TGI", "setting": "[44]", "value": "> 100", "unit": "µM"}, {"measurement": "TGI", "setting": "[45]", "value": "> 100", "unit": "µM"}, {"measurement": "TGI", "setting": "[15]", "value": "> 100", "unit": "µM"}, {"measurement": "TGI", "setting": "[46]", "value": "> 100", "unit": "µM"}, {"measurement": "TGI", "setting": "[17]", "value": "> 100", "unit": "µM"}, {"measurement": "TGI", "setting": "[47]", "value": "> 100", "unit": "µM"}, {"measurement": "TGI", "setting": "[48]", "value": 76.3, "unit": "µM"}, {"measurement": "TGI", "setting": "[49]", "value": "> 100", "unit": "µM"}, {"measurement": "TGI", "setting": "[18]", "value": "> 100", "unit": "µM"}, {"measurement": "TGI", "setting": "[19]", "value": "> 100", "unit": "µM"}, {"measurement": "TGI", "setting": "[20]", "value": "> 100", "unit": "µM"}, {"measurement": "TGI", "setting": "[50]", "value": "> 100", "unit": "µM"}, {"measurement": "TGI", "setting": "[51]", "value": "> 100", "unit": "µM"}, {"measurement": "TGI", "setting": "[21]", "value": "> 100", "unit": "µM"}, {"measurement": "TGI", "setting": "[52]", "value": "> 100", "unit": "µM"}, {"measurement": "TGI", "setting": "[53]", "value": "> 100", "unit": "µM"}, {"measurement": "TGI", "setting": "[22]", "value": "> 100", "unit": "µM"}, {"measurement": "TGI", "setting": "[23]", "value": 87.6, "unit": "µM"}, {"measurement": "TGI", "setting": "[24]", "value": "> 100", "unit": "µM"}, {"measurement": "TGI", "setting": "[25]", "value": "> 100", "unit": "µM"}, {"measurement": "TGI", "setting": "[54]", "value": "> 100", "unit": "µM"}, {"measurement": "TGI", "setting": "[26]", "value": "> 100", "unit": "µM"}, {"measurement": "TGI", "setting": "[27]", "value": "> 100", "unit": "µM"}, {"measurement": "TGI", "setting": "[28]", "value": "> 100", "unit": "µM"}, {"measurement": "TGI", "setting": "[29]", "value": "> 100", "unit": "µM"}, {"measurement": "TGI", "setting": "[30]", "value": "> 100", "unit": "µM"}, {"measurement": "TGI", "setting": "[31]", "value": "> 100", "unit": "µM"}, {"measurement": "TGI", "setting": "[55]", "value": "> 100", "unit": "µM"}, {"measurement": "TGI", "setting": "[56]", "value": "> 100", "unit": "µM"}, {"measurement": "TGI", "setting": "[57]", "value": "> 100", "unit": "µM"}, {"measurement": "TGI", "setting": "[58]", "value": "> 100", "unit": "µM"}, {"measurement": "TGI", "setting": "[59]", "value": "> 100", "unit": "µM"}]}
